# Assay results taken from ChEMBL document CHEMBL1201862, “PubChem BioAssay data set” (2004).
# The source made the active and inactive calls.
# Key:
# [1] = biological target: T1, RNA-binding protein pos-1 (Caenorhabditis elegans, UniProt G5EF15); assay: disruptors of C. elegans POS-1 RNA interaction – biochemical, fluorescence polarization, dose response (AID 1964);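 note: purified POS-1 fused to maltose binding protein made in E. coli; potency of compounds blocking POS-1 binding to fluorescent RNA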
# T1 sequence (G5EF15 whole entry): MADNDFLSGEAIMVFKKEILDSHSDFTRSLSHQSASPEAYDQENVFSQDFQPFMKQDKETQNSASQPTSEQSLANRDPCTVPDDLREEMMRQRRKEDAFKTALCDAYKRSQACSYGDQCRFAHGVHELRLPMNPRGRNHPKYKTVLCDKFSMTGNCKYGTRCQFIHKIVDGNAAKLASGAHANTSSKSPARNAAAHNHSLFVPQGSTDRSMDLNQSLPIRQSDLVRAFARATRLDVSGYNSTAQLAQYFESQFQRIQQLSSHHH
# Streptococcus [2] = assay: GAS UMAA2166 growth inhibition – luminescence, BacTiterGlo, counter-screen for streptokinase expression inhibitor project, dose response (AID 1915); type: functional, organism-based;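 note: potency for reduction of bacterial viability or growth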
# [3] = tested on: Streptococcus sp. 'group A'; assay: Streptococcus pyogenes SK(-)GAS viability under kanamycin – luminescence, BacTiterGlo, confirmation, counter-screen for streptokinase expression inhibitor project, dose response (AID 1900); type: functional, organism-based
# [4] = biological target: T2, Zinc finger protein mex-5 (Caenorhabditis elegans, UniProt Q9XUB2); assay: potency of MEX-5 RNA-binding blockers – biochemical, C. elegans, fluorescence polarization, dose response (AID 1960)
# T2 sequence (Q9XUB2 whole entry): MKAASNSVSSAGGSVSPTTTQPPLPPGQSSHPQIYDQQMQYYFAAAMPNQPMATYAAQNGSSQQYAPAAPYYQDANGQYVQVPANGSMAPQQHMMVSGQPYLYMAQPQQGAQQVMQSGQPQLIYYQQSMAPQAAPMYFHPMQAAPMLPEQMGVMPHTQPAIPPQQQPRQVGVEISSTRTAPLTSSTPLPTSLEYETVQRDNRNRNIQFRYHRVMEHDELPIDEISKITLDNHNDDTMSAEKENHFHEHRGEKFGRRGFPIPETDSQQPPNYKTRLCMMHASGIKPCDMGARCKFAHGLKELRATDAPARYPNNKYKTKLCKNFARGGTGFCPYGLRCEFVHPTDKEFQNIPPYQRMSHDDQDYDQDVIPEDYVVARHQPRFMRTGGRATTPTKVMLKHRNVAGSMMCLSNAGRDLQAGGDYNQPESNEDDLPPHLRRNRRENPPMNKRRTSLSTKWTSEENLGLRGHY
# Escherichia coli [5] = assay: microbe, parasite or virus in culture
# Escherichia coli [6] = assay: microbe, parasite or virus in culture; remark: listed apart in the source
# CAAX prenyl protease 2 [7] = biological target: T3, CAAX prenyl protease 2 (Saccharomyces cerevisiae S288c, UniProt Q03530); type: biochemical
# T3 sequence (Q03530 whole entry): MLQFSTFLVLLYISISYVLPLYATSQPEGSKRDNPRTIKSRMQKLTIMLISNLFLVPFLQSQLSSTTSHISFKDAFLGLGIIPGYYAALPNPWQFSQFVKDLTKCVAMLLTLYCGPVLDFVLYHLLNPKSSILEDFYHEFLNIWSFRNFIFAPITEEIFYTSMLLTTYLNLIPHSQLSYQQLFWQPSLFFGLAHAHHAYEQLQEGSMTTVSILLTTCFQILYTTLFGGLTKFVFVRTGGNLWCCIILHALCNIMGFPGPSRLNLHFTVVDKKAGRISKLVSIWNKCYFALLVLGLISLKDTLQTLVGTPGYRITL
# Large T antigen = Large T antigen (Simian virus 40, UniProt P03070); type: functional, Betapolyomavirus macacae;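 note: Confirmatory-stage PubChem screen for compounds that inhibit SV40 T antigen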
# CAAX prenyl protease 2 [8] = biological target: CAAX prenyl protease 2 (Homo sapiens, UniProt Q9Y256); assay: inhibition of Ras-converting CAAX protease Rce1 – biochemical, yeast membranes, quenched-peptide fluorescence, cherry-pick, dose response (AID 588849)
# Trypsin = Trypsin (Sus scrofa, UniProt P00761); assay: trypsin protease activity blockade – biochemical, quenched peptide fluorescence, cherry-pick, selectivity assay for Rce1 protease inhibitor project, dose response (AID 488789)
# [9] = biological target: T4, Beta-adrenergic receptor kinase 1 (Homo sapiens, UniProt P25098); assay: blockers of aptamer binding to GRK2 – biochemical, flow cytometry beads, FAM-aptamer, powder set 1, dose response (AID 588720)
# T4 sequence (P25098 whole entry): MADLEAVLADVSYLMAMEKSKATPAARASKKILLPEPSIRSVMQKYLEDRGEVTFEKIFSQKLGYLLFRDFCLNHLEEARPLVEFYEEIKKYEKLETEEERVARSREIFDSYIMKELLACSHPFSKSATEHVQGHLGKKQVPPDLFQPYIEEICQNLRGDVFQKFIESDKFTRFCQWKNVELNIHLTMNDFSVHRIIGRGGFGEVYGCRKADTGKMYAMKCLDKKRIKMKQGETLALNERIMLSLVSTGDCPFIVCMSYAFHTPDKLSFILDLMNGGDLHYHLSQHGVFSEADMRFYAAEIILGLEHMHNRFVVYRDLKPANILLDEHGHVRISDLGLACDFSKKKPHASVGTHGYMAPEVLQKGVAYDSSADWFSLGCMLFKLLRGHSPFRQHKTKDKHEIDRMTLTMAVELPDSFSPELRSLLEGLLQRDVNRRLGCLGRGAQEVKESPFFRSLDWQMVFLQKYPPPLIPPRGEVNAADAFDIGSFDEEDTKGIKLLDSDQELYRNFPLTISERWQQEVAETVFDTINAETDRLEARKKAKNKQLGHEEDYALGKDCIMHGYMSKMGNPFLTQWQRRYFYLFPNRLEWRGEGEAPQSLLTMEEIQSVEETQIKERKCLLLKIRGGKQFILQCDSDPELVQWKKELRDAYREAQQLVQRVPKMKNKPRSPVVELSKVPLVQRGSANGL
# [10] = Luminescence Cell-Based Dose Retest to Confirm Inhibitors of Cancer Stem Cells. [Related pubchem assays (depositor defined):AID2717, AID2721]; type: functional; conditions: Homo sapiens
# [11] = off-target signal loss in HeLa-CEM21 co-culture – HeLa F-luc CTL cells, cherry-picked, counter-screen for HIV-1 Env fusion inhibitor project, dose response (AID 652040); type: functional, cell-based;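 note: potency for signal decrease marking cytotoxic or nonspecific inhibition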
# [12] = viability loss in CEM21 cells – cell-based, CellTiter-Glo luminescence, cherry-picked, cytotoxicity control for viral fusion inhibitor project, dose response (AID 652042); type: functional;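 note: potency for signal decrease meaning cytotoxicity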
# [13] = biological target: T5, Heat shock factor protein 1 (Mus musculus, UniProt P38532); assay: enhancement of HSF1-driven luciferase signal – cell-based, NIH3T3, luminescence, dose retest, confirmation (AID 435004); type: functional;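 note: stress induced by proteasome inhibitor MG132 added 30 min after compound; luciferase reporter driven by HSF1 response element in NIH3T3 cells; actives raise luminescence as potentiators of the MG132 stress response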
# T5 sequence (P38532 whole entry): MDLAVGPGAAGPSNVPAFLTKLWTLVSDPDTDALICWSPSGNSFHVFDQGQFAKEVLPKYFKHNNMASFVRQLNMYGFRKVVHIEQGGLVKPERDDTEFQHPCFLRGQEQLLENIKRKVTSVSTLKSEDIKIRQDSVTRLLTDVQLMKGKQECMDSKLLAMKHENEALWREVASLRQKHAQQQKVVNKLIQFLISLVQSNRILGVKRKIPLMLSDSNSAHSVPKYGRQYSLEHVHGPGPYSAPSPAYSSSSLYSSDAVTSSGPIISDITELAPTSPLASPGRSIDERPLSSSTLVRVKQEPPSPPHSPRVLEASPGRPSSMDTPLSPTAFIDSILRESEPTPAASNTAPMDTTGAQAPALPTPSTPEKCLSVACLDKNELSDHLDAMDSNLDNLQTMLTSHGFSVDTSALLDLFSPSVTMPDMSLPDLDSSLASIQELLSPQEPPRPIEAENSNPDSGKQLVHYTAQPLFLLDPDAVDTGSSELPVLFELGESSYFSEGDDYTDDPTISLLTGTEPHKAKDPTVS
# HEK293 [14] = assay: cells; conditions: Homo sapiens
# [15] = HIV-1 AD8 envelope cell-cell fusion blockers – cherry-pick, dose response (AID 652062); type: functional, cell-based;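 note: luciferase signal from cell-cell fusion driven by HIV-1 clade B AD8 Env; potency is for inhibitors of fusion seen as a drop in luminescence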
# [16] = blockers of HIV-1 ZM109 envelope-driven cell-cell fusion – HeLa effector, CEM target cells, luciferase, cherry-pick, dose response (AID 652058); type: functional, cell-based;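 note: luciferase signal from HIV-1 Env mediated cell-cell fusion of effector and target cells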
# [17] = biological target: Heat shock protein HSP 90-alpha (Homo sapiens, UniProt P07900); type: functional, organism-based
# HEK293 [18] = assay: cells; conditions: Homo sapiens; remark: listed apart in the source
# [19] = blockers of HIV-1 envelope-mediated cell-cell fusion – cherry-pick, dose response (AID 652057); type: functional, cell-based
# Streptokinase A = biological target: T6, Streptokinase A (Streptococcus pyogenes serotype M1, UniProt P10520); assay: viability-normalized secreted streptokinase activity reduction – plasminogen activation absorbance, OD405, dose response (AID 1914); type: functional, Streptococcus pyogenes M1 GAS;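 note: secreted streptokinase activity via plasminogen activation per viability signal from cell pellet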
# T6 sequence (P10520 whole entry): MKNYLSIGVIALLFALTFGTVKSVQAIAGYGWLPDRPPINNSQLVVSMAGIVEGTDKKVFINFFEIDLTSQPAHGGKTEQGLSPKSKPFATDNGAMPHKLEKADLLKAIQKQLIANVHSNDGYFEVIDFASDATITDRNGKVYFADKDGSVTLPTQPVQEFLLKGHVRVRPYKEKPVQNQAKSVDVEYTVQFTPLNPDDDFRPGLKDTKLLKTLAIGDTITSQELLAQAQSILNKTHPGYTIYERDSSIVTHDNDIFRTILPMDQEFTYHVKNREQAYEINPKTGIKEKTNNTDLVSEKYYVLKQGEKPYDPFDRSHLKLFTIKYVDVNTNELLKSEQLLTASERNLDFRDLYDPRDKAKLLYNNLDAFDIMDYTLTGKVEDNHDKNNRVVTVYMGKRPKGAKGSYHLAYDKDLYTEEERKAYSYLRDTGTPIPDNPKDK
# Streptococcus [20] = assay: Luminescence Microorganism-Based Dose Response Follow up to Identify Compounds Cytotoxic to Streptococcus. [Related pubchem assays: 1677 (Project Summary), 1915, 1914, 1902 (Retest at Dose), 1900 (Counter Screen), 1662 (Primary HTS)]; type: functional, organism-based
# Vero = assay: cells; type: functional, Chlorocebus sabaeus; conditions: Chlorocebus sabaeus, Vero
# INS1 [21] = assay: beta-cell survival under cytokine stress – INS-1E, ATP luminescence, dry powder, dose response (AID 488844); type: functional, cell-based; conditions: Rattus norvegicus
# INS1 [22] = assay: INS-1E mitochondrial potential rescue under cytokines – cell-based, JC-1 fluorescence ratio, dry powder, dose response (AID 488931); type: functional; conditions: Rattus norvegicus
# Chain of CAAX prenyl protease 2 (Homo sapiens, UniProt Q9Y256) (Q9Y256 whole entry): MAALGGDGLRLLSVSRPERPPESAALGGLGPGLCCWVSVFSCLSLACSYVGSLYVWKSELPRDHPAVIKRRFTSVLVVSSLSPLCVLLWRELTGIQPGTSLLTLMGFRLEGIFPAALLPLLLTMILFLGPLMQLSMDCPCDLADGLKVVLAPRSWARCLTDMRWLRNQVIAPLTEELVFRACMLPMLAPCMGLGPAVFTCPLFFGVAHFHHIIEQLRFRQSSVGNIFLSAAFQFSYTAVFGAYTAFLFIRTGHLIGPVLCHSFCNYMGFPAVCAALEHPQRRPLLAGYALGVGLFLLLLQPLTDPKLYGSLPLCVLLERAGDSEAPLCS
# Chain of Large T antigen (P03070 whole entry): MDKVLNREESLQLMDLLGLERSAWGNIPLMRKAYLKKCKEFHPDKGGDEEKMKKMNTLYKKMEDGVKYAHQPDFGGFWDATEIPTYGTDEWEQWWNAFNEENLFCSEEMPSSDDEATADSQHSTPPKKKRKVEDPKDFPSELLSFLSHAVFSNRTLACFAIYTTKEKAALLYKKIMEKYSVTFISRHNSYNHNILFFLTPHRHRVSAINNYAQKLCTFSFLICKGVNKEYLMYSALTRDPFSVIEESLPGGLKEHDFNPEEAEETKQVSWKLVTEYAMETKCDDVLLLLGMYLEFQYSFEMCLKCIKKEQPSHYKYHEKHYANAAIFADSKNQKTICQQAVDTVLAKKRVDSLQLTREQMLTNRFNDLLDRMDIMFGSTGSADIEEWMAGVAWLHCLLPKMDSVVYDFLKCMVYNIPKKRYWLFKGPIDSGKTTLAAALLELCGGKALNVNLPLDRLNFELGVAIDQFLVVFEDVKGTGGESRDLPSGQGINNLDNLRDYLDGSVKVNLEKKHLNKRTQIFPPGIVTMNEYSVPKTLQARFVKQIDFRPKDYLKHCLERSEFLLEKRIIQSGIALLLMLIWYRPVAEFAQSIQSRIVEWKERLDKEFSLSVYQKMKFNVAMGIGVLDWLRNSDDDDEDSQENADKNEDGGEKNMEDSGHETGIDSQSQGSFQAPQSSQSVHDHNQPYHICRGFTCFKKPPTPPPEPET
# Chain of Trypsin (P00761 whole entry): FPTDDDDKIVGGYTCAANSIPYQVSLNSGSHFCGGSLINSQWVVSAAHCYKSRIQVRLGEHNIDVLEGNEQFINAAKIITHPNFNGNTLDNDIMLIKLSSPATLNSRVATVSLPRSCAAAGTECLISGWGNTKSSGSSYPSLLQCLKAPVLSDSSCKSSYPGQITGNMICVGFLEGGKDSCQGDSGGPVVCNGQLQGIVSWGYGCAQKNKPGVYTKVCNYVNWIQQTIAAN
compound,measurement,setting,value
CN(C)c1ccc(O)c2c1CC1CC3C(N(C)C)C(=O)C(C(N)=O)=C(O)[C@@]3(O)C(=O)C1=C2O (stereo partly specified),EC50,[1],> 300 µM (not active)
same,EC50,Streptococcus [2],0.184 µM (active)
same,EC50,[3],0.078 µM (active)
same,EC50,[4],37 µM (active)
same,AC50,Escherichia coli [5],1.78 µM (active)
same,AC50,Escherichia coli [6],11.4 µM (active)
CN1CC(C(=O)O)Cc2c1ccc1ccccc21 (stereo unspecified),AC50,CAAX prenyl protease 2 [7],9.61 µM (active)
same,IC50,Large T antigen,19.4 µM (active)
same,AC50,CAAX prenyl protease 2 [8],7.4 µM (active)
same,AC50,Trypsin,5.17 µM (active)
COC(=O)c1ccc(NC(=O)CCS(=O)(=O)c2ccc(Br)cc2)cc1,EC50,[9],6.56 µM (active)
CC(=O)N(C)c1ccc(OCC(O)Cn2c3ccc(Cl)cc3c3cc(Cl)ccc32)cc1 (stereo unspecified),AC50,[10],1.59 µM (active)
same,EC50,Streptococcus [2],80.6 µM (active)
same,EC50,[3],2.7 µM (active)
same,AC50,[11],2.47 µM (active)
same,AC50,[12],23.2 µM (active)
same,EC50,[13],> 260 µM (inactive)
same,EC50,HEK293 [14],> 59.6 µM (inactive)
same,AC50,[15],4.49 µM (active)
same,AC50,[16],2.38 µM (active)
same,AC50,[17],5.12 µM (active)
same,EC50,HEK293 [18],> 59.6 µM (inactive)
same,AC50,[19],2.19 µM (active)
same,EC50,Streptokinase A,2.66 µM (active)
same,EC50,Streptococcus [20],9.63 µM (active)
CC(=O)Oc1ccccc1C(=O)C=Cc1cccc([N+](=O)[O-])c1,CC50,Vero,16.5 µM (active)
same,EC50,HEK293 [14],> 59.6 µM (inactive)
same,AC50,[17],3.01 µM (active)
same,EC50,HEK293 [18],> 59.6 µM (inactive)
Cc1ccc(S(=O)(=O)N(C)C[C@@H]2Oc3c(NC(=O)Nc4ccccc4)cccc3C(=O)N([C@@H](C)CO)C[C@H]2C)cc1,AC50,INS1 [21],27 µM (active)
same,AC50,INS1 [22],81.6 µM (active)
